Laboratory results taken from patent US6610675B1 (priority 1980, dated 2003).

Legend:
Format in all cases: in vivo, rat
[1] = test system: ear swelling induced by croton oil; assay: Ear edema test; conditions: 1 mg/kg topical, 6 hr
Protocol: The test animals were Sprague/Dawley rats weighing approximately 150 grams each. In treatment groups, selected amounts of the test compound were dissolved in acetone containing 5% croton oil and 50 microliters of the solution were applied to the inner surface of the right ear of the rats. A control group was identically treated with vehicle only, i.e. 5% croton oil in acetone. Six hours after croton oil challenge, a constant region of each ear was removed by dissection under anesthesia. Then, 48 hours after steroid treatment, the animals were sacrificed and the thymi and adrenals were removed and weighed. The test results showing the inhibitory effect of topically applied steroids on the ear swelling induced by croton oil are summarized in Table II below.

[2] = test system: granulation tissue formation caused by implantation of cotton pellets; assay: Granuloma formation test (local cotton pellet granuloma assay)
Protocol: The test compound was dissolved in acetone and aliquots of varying concentrations were injected into cotton pellets. The pellets were dried and then one pellet was implanted beneath the skin of each test rat. Six days later, the animals were sacrificed and the granulation tissue (granuloma) which formed in and around the implanted pellet was removed, dried and weighed. In addition, the thymi and adrenals were removed and weighed.

[3] = test system: thymus weight in rats; assay: Thymus inhibition testing (subcutaneous administration); conditions: for Body weight gain / Thymus / Thymus Inhibition: Table VII, three days
Protocol: Several further studies were undertaken to determine the effects of selected compounds of the invention on thymi weights in rats when the drugs were systemically administered. In each of these studies, male Sprague-Dawley rats were used. […] On the fifth day (48 hours following the last treatment), the animals were sacrificed and the thymi weights were recorded. […] It is evident that the higher the inhibition of thymus activity at a given dose, the more toxic the compound is.

With CCCC(=O)O[C@]1(C(=O)CO)CC[C@H]2[C@@H]3CCC4=CC(=O)CC[C@]4(C)[C@H]3[C@@H](O)C[C@@]21C [Hydrocortisone 17-butyrate, reference compound] the “Ear Weight, % Increase” value [1] was −3.6 ± 3.5 %, the “Ear Weight, % Inhibition” value [1] was 106.0% and the “Ear Weight, Inflamed Ear” value [1] was 50.0 ± 2.3 mg. For the same compound, the “Ear Weight, Untreated Ear” value [1] was 52.0 ± 2.5 mg, the Body wt. gain ([2]; Table III, 1 mg/pellet) was 33.4 ± 1.4 g and the “Granulation tissue Dry wt.” value ([2]; Table III, 1 mg/pellet) was 32.2 ± 5.0 mg/100 g body wt. The “Granulation tissue Inhibition” value ([2]; Table III, 1 mg/pellet) was 26.3%, the Body wt. gain ([2]; Table III, 3 mg/pellet) was 15.9 ± 1.4 g and the “Granulation tissue Dry wt.” value ([2]; Table III, 3 mg/pellet) was 21.6 ± 2.2 mg/100 g body wt. The “Granulation tissue Inhibition” value ([2]; Table III, 3 mg/pellet) was 50.6%, the Body wt. gain ([2]; Table III, 10 mg/pellet) was 4.9 ± 1.0 g and the “Granulation tissue Dry wt.” value ([2]; Table III, 10 mg/pellet) was 29.2 ± 3.1 mg/100 g body wt. The “Granulation tissue Inhibition” value ([2]; Table III, 10 mg/pellet) was 33.2%, the Body wt. gain ([2]; Table IV, 300 μg/pellet) was 26.2 ± 1.7 g and the “Granulation tissue Dry wt.” value ([2]; Table IV, 300 μg/pellet) was 34.0 ± 5.3 mg. The “Granulation tissue Dry wt. Inhibition” value ([2]; Table IV, 300 μg/pellet) was 58.1%, the “Granulation tissue Wet wt.” value ([2]; Table IV, 300 μg/pellet) was 333 ± 21 mg and the “Granulation tissue Wet wt. Inhibition” value ([2]; Table IV, 300 μg/pellet) was 41.2%. For the same compound, the Thymus wt. ([2]; Table IV, 300 μg/pellet) was 353 ± 37 mg, the “Thymus wt. (Decrease %)” value ([2]; Table IV, 300 μg/pellet) was “(20.7) %” and the Body wt. gain ([2]; Table IV, 1000 μg/pellet) was 26.2 ± 1.2 g. For the same compound, the “Granulation tissue Dry wt.” value ([2]; Table IV, 1000 μg/pellet) was 35.3 ± 4.2 mg, the “Granulation tissue Dry wt. Inhibition” value ([2]; Table IV, 1000 μg/pellet) was 56.5% and the “Granulation tissue Wet wt.” value ([2]; Table IV, 1000 μg/pellet) was 366 ± 24 mg. For the same compound, the “Granulation tissue Wet wt. Inhibition” value ([2]; Table IV, 1000 μg/pellet) was 35.3%, the Thymus wt. ([2]; Table IV, 1000 μg/pellet) was 99 ± 7 mg and the “Thymus wt. (Decrease %)” value ([2]; Table IV, 1000 μg/pellet) was “(77.8) %”. The Body wt. gain ([2]; Table IV, 3000 μg/pellet) was 6.7 ± 2.2 g, the “Granulation tissue Dry wt.” value ([2]; Table IV, 3000 μg/pellet) was 28.0 ± 2.7 mg and the “Granulation tissue Dry wt. Inhibition” value ([2]; Table IV, 3000 μg/pellet) was 65.5%. For the same compound, the “Granulation tissue Wet wt.” value ([2]; Table IV, 3000 μg/pellet) was 329 ± 14 mg, the “Granulation tissue Wet wt. Inhibition” value ([2]; Table IV, 3000 μg/pellet) was 41.9% and the Thymus wt. ([2]; Table IV, 3000 μg/pellet) was 58 ± 5 mg. The “Thymus wt. (Decrease %)” value ([2]; Table IV, 3000 μg/pellet) was “(87.0) %”, the Body wt. gain ([2]; Table IV, 10000 μg/pellet) was -2.0 ± 2.4 g and the “Granulation tissue Dry wt.” value ([2]; Table IV, 10000 μg/pellet) was 27.2 ± 2.4 mg. For the same compound, the “Granulation tissue Dry wt. Inhibition” value ([2]; Table IV, 10000 μg/pellet) was 66.5%, the “Granulation tissue Wet wt.” value ([2]; Table IV, 10000 μg/pellet) was 311 ± 7 mg and the “Granulation tissue Wet wt. Inhibition” value ([2]; Table IV, 10000 μg/pellet) was 45.1%. The Thymus wt. ([2]; Table IV, 10000 μg/pellet) was 46 ± 7 mg, the “Thymus wt. (Decrease %)” value ([2]; Table IV, 10000 μg/pellet) was “(89.7) %” and the ED50 ([2]; Table XII, anti-inflammatory effect in cotton pellet granuloma) was 480 μg/pellet. The ED60 ([2]; dose causing 60% inhibition of granulation tissue weight) was 1015 μg/pellet, the Body weight gain ([3]; 0.3 mg/kg/day s.c.) was 17.0 ± 0.8 g and the Thymus ([3]; 0.3 mg/kg/day s.c.) was 441 ± 27 mg. For the same compound, the “Thymus Inhibition” value ([3]; 0.3 mg/kg/day s.c.) was 6.4%, the Body weight gain ([3]; 1 mg/kg/day s.c.) was 11.8 ± 0.8 g and the Thymus ([3]; 1 mg/kg/day s.c.) was 323 ± 16 mg. For the same compound, the “Thymus Inhibition” value ([3]; 1 mg/kg/day s.c.) was 31.4%, the Body weight gain ([3]; 3 mg/kg/day s.c.) was 7.3 ± 0.5 g and the Thymus ([3]; 3 mg/kg/day s.c.) was 166 ± 5 mg. The “Thymus Inhibition” value ([3]; 3 mg/kg/day s.c.) was 64.8%, the Body weight gain ([3]; 10 mg/kg/day s.c.) was -5.0 ± 1.1 g and the Thymus ([3]; 10 mg/kg/day s.c.) was 65 ± 5 mg. The “Thymus Inhibition” value ([3]; 10 mg/kg/day s.c.) was 86.2%, the TED40 ([3]; Table X, dose required to achieve 40% inhibition of thymi weight, subcutaneous) was 1.3 mg and the TED50 ([3]; Table X, dose required to achieve 50% inhibition of thymi weight, subcutaneous) was 2.0 mg. It also gave a TED40 ([3]; Table XII, thymus inhibition effect, subcutaneously) of 1.3 mg/kg.
